Tested on: asthma patients
Assay: Bronchodilator response (spirometry, FEV1) of asthma patients to inhaled albuterol, by β2AR haplotype pair
Type: in vivo, human
Protocol: The patients in the asthma cohort were enrolled from an outpatient facility as described in detail elsewhere (Yan, L., Galinsky, R. E., Bernstein, J. A., Liggett, S. B. & Weinshilboum, R. M. (1999) Pharmacogenetics in Press). […] Forced expiratory volume in 1 second (FEV1) and forced vital capacity (FVC) were determined in triplicate. The predicted values for these measurements were calculated based on standard algorithms (Morris, J. F., Koski, A. & Johnson, L. C. (1971) Am Rev Respir Dis 103, 57-67).
The association between changes in % predicted FEV1 and haplotype pair was assessed by fitting an analysis of covariance model (ANCOVA) with terms for haplotype pair, sex and baseline severity. P-values from pairwise comparisons by haplotype pair were adjusted for multiple comparisons by applying the Holm-Sidak step-down procedure (Ludbrook, J. (1998) Clin and Exp Pharmacology & Physiology 25, 1032-1037.). […] In addition, the African-American asthma patients were excluded from the analysis due to the low number of individuals in this population group. For the analysis of individual SNPs, a similar ANCOVA model was employed with a discrete term for SNP genotype, and terms for sex and baseline severity. The Holm-Sidak step-down procedure was used to adjust the p-values from the individual SNP analyses for the number of tests performed.
Pairwise tests were made while correcting for multiple comparisons. […] For this analysis, a similar ANCOVA model as above was utilized. […] Since 0, 1 or 2 copies of these two haplotypes are present in our population as haplotype pairs 2/2, 2/4 and 4/4, a potential gene dose effect can be assessed by regression analysis.

CC(C)(C)NCC(O)c1ccc(O)c(CO)c1 (stereo not drawn) [albuterol] was tested, and the “bronchodilator response to albuterol” value (asthmatic patients with haplotype pair 2/6) was “moderate bronchodilator response”, the “bronchodilator response to albuterol” value (asthmatic patients with haplotype pairs 2/2 and 4/6) was “respond well” and the “bronchodilator response to albuterol” value (asthmatic patients with haplotype pairs 2/4 and 4/4) was “little to no response”.

— patent US6586183B2, “Association of β2-adrenergic receptor haplotypes with drug response” (Genaissance Pharmaceuticals, Inc., priority 2000, dated 2003)
